According to patent US9758492B2, “IDO inhibitors” (Bristol-Myers Squibb Company, priority 2013, dated 2017):

Each compound was assayed against T1, Human IDO1 (Homo sapiens, UniProt P14902) (assay: IDO Kynurenine Assay with Human IDO1/HEK293 Cells). Conditions: read-out: HEK human IDO-1 (IC50).
T1 construct: expressed in transfected cells; host or cells: HEK293
Assay type: cell-based
Procedure: IDO Kynurenine Assay with Human IDO1/HEK293 Cells
Human IDO1/HEK293 cells were seeded at 10,000 cells per 50 uL per well with RPMI/phenol red free media contains 10% FBS in a 384-well black wall clear bottom tissue culture plate (Matrix Technologies LLC) 125 nL of certain concentration of compound was then added to each well using ECHO liquid handling systems. The cells were incubated for 20 hours in 37° C. incubator with 5% CO2.
The compound treatments were stopped by adding Trichloroacetic Acid (Sigma-Aldrich) to a final concentration at 0.2%. The cell plate was further incubated at 50° C. for 30 minute. The equal volume supernatant (20 uL) and 0.2% (w/v) Ehrlich reagent (4-dimethylaminobenzaldehyde, Sigma-Aldrich) in glacial acetic acid were mixed in a new clear bottom 384-well plate. This plate was then incubated at room temperature for 30 minute. The absorbance at 490 nm was measured on Envision plate reader.
Compound IC50 values were calculated using the counts of 500 nM of a reference standard treatment as one hundred percent inhibition, and counts of no compound but DMSO treatment as zero percent inhibition.

T1 sequence (P14902 whole entry): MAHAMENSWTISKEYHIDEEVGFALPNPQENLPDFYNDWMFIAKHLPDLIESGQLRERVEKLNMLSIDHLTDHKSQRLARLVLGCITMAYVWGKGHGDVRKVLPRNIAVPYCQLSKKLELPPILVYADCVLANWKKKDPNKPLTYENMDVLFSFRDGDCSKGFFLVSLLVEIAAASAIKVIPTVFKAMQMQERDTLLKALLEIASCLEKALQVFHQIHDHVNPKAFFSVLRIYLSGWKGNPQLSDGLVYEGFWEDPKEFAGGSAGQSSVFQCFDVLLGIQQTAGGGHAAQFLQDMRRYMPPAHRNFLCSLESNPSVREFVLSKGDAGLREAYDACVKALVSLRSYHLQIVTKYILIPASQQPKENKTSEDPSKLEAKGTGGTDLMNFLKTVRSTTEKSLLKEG

IC50	Compound
220 nM	CC(C)CN(CC(C)C)c1ccc(-c2ccccc2-c2nnn[nH]2)cc1NC(=O)Nc1ccc(C#N)nc1 [Example 489]
160 nM	Cc1ccc(NC(=O)Nc2cc(-c3cccc(Cl)c3C(=O)O)ccc2N(CC(C)C)CC(C)C)cc1 [Example 492]
120 nM	Cc1ccc(NC(=O)Nc2cc(-c3cc(Cl)ccc3C(=O)O)ccc2N(CC(C)C)CC(C)C)cc1 [Example 493]
30 nM	COc1ccc(-c2ccc(N(CC(C)C)CC(C)C)c(NC(=O)Nc3ccc(Cl)cc3F)c2)c(C(=O)O)c1 [Example 494]
50 nM	Cc1ccc(NC(=O)Nc2cc(-c3cccc(OC(F)(F)F)c3C(=O)O)ccc2N(CC(C)C)CC(C)C)cc1 [Example 495]
10 nM	CC(C)CN(CC(C)C)c1ccc(-c2cccc(OC(F)(F)F)c2C(=O)O)cc1NC(=O)Nc1ccc(Cl)cc1F [Example 496]
230 nM	COc1ccc(-c2ccc(N(CC(C)C)CC(C)C)c(NC(=O)Nc3ccc(C)cc3)c2)c(C(=O)O)c1 [Example 497]
590 nM	COc1ccc(-c2ccc(N(CC(C)C)CC(C)C)c(NC(=O)Nc3ccc(C#N)nc3)c2)c(C(=O)O)c1 [Example 498]
1260 nM	COc1cccc(-c2ccc(N(CC(C)C)CC(C)C)c(NC(=O)Nc3ccc(C#N)nc3)c2)c1C(=O)O [Example 499]
20 nM	COc1cccc(-c2ccc(N(CC(C)C)CC(C)C)c(NC(=O)Nc3ccc(Cl)cc3F)c2)c1C(=O)O [Example 500]
320 nM	CC(C)CN(CC(C)C)c1ccc(-c2cccc(OC(F)(F)F)c2C(=O)O)cc1NC(=O)Nc1ccc(C#N)nc1 [Example 501]
2870 nM	Cc1c(Br)cc(NC(=O)Nc2cc(-c3cc(F)ccc3C(=O)O)ccc2N(CC(C)C)C2CCCCC2)cc1Br [Example 507, 4′-(Cyclohexyl(isobutyl)amino)-3′-(3-(3,5-dibromo-4-methylphenyl)ureido)-5-fluoro-[1,1′-biphenyl]-2-carboxylic acid]
6630 nM	Cc1cc(NC(=O)Nc2cc(-c3ccccc3-c3nnn[nH]3)ccc2N(C2CC2)C2CC2)no1 [Example 509, 1-(4-(Dicyclopropylamino)-2′-(1H-tetrazol-5-yl)-[1,1′-biphenyl]-3-yl)-3-(5-methylisoxazol-3-yl)urea]
4220 nM	CC(C)CN(c1cc(F)c(-c2cc(F)ccc2C(=O)O)cc1NC(=O)Nc1ccn(C)n1)C1CCCCC1 [Example 515, 4′-(Cyclohexyl(isobutyl)amino)-2′,5-difluoro-5′-(3-(1-methyl-1H-pyrazol-3-yl)ureido)-[1,1′-biphenyl]-2-carboxylic acid]
50 nM	Cc1cccc(NC(=O)Nc2cc(-c3cc(F)ccc3C(=O)O)c(F)cc2N(CC(C)C)C2CCCCC2)c1 [Example 516, 4′-(Cyclohexyl(isobutyl)amino)-2′,5-difluoro-5′-(3-(m-tolyl)ureido)-[1,1′-biphenyl]-2-carboxylic acid]
70 nM	CC(C)CN(c1cc(F)c(-c2cc(F)ccc2C(=O)O)cc1NC(=O)Nc1ccc(C(F)(F)F)nc1)C1CCCCC1 [Example 517, 4′-(Cyclohexyl(isobutyl)amino)-2′,5-difluoro-5′-(3-(6-(trifluoromethyl)pyridin-3-yl)ureido)-[1,1′-biphenyl]-2-carboxylic acid]
20 nM	Cc1cc(NC(=O)Nc2cc(-c3cc(F)ccc3C(=O)O)c(F)cc2N(CC(C)C)C2CCC(F)(F)CC2)no1 [Example 518, 4′-((4,4-Difluorocyclohexyl)(isobutyl)amino)-2′,5-difluoro-5′-(3-(5-methylisoxazol-3-yl)ureido)-[1,1′-biphenyl]-2-carboxylic acid]
6.91 nM	Cc1ccc(NC(=O)Nc2cc(-c3cc(F)ccc3C(=O)O)c(F)cc2N(CC(C)C)C2CCC(F)(F)CC2)cc1 [Example 519, 4′-((4,4-Difluorocyclohexyl)(isobutyl)amino)-2′,5-difluoro-5′-(3-(p-tolyl)ureido)-[1,1′-biphenyl]-2-carboxylic acid]
4870 nM	CC(C)CN(c1cc(F)c(-c2cc(F)ccc2C(=O)O)cc1NC(=O)Nc1cnn(CC(F)(F)F)c1)C1CCC(F)(F)CC1 [Example 520, 4′-((4,4-Difluorocyclohexyl)(isobutyl)amino)-2′,5-difluoro-5′-(3-(1-(2,2,2-trifluoroethyl)-1H-pyrazol-4-yl)ureido)-[1,1′-biphenyl]-2-carboxylic acid]
8.44 nM	Cc1cc(NC(=O)Nc2cc(-c3cc(F)ccc3C(=O)O)c(F)cc2N(CC(C)C)C2CCC(F)(F)CC2)on1 [Example 521, 4′-((4,4-Difluorocyclohexyl)(isobutyl)amino)-2′,5-difluoro-5′-(3-(3-methylisoxazol-5-yl)ureido)-[1,1′-biphenyl]-2-carboxylic acid]
1220 nM	Cc1ccc(NC(=O)Nc2cc(-c3cc(F)ccc3C(=O)O)c(F)cc2N(CC(C)C)C2CCCCC2)nn1 [Example 522, 4′-(Cyclohexyl(isobutyl)amino)-2′,5-difluoro-5′-(3-(6-methylpyridazin-3-yl)ureido)-[1,1′-biphenyl]-2-carboxylic acid]

More lines, now with the values behind:

Compound	IC50
CCC(CC)N(CC(C)C)c1ccc(-c2ccccc2C(=O)O)cc1NC(=O)Nc1ccc(C)cc1 [Example 443]	10 nM
CCC(CC)N(CC(C)C)c1ccc(-c2ccccc2-c2nnn[nH]2)cc1NC(=O)Nc1ccc(C)cc1 [Example 444]	3.21 nM
COCCN(c1ccc(-c2ccccc2C(=O)O)cc1NC(=O)Nc1ccc(C)cc1)C1CCCCC1 [Example 445]	50 nM
COCCN(c1ccc(-c2ccccc2-c2nnn[nH]2)cc1NC(=O)Nc1ccc(C)cc1)C1CCCCC1 [Example 446]	2.45 nM
COCCN(c1ccc(-c2cc(F)ccc2C(=O)O)cc1NC(=O)Nc1ccc(C)cc1)C1CCCCC1 [Example 447]	60 nM
CCC(CC)N(CC(C)C)c1ccc(-c2ccccc2C(=O)O)cc1NC(=O)Nc1ccccc1F [Example 448]	1.56 nM
CCC(CC)N(CC(C)C)c1ccc(-c2ccccc2-c2nnn[nH]2)cc1NC(=O)Nc1ccccc1F [Example 449]	1.41 nM
CCC(CC)N(CC(C)C)c1ccc(-c2cc(F)ccc2C(=O)O)cc1NC(=O)Nc1ccccc1F [Example 450]	5.47 nM
COCCN(c1ccc(-c2cc(F)ccc2C(=O)O)cc1NC(=O)Nc1ccc(Cl)cc1F)C1CCCCC1 [Example 451]	1.74 nM
COCCN(c1ccc(-c2ccccc2-c2nnn[nH]2)cc1NC(=O)Nc1ccc(Cl)cc1F)C1CCCCC1 [Example 452]	0.661 nM
CC(C)CN(CC(C)C)c1ccc(-c2ccccc2-c2nnn[nH]2)cc1NC(=O)Nc1ccc(OC(F)F)cc1 [Example 453]	9.9 nM
CCOc1ccc(NC(=O)Nc2cc(-c3ccccc3-c3nnn[nH]3)ccc2N(CC(C)C)CC(C)C)cc1 [Example 454]	2.35 nM
CC(C)CN(CC(C)C)c1ccc(-c2ccccc2-c2nnn[nH]2)cc1NC(=O)Nc1ccc(C(C)C)cc1 [Example 455]	510 nM
COCCN(c1ccc(-c2ccccc2C(=O)O)cc1NC(=O)Nc1ccc(Cl)cc1F)C1CCCCC1 [Example 456]	0.863 nM
CC(C)CN(CC(C)C)c1ccc(-c2ccccc2-c2nnn[nH]2)cc1NC(=O)Nc1ccc(CC#N)cc1 [Example 457]	370 nM
CC(C)CN(CC(C)C)c1ccc(-c2ccccc2-c2nnn[nH]2)cc1NC(=O)Nc1ccc2c(c1)CCC2 [Example 458]	140 nM

Compound	IC50
CCc1ccc(NC(=O)Nc2cc(-c3ccccc3-c3nnn[nH]3)ccc2N(CC(C)C)CC(C)C)cc1 [Example 459]	7.09 nM
C=C(C)CN(c1ccc(-c2ccccc2C(=O)O)cc1NC(=O)Nc1ccc(C)cc1)C1CCCCC1 [Example 460]	2.4 nM
C=C(C)CN(c1ccc(-c2cc(F)ccc2C(=O)O)cc1NC(=O)Nc1ccc(C)cc1)C1CCCCC1 [Example 461]	4.24 nM
C=C(C)CN(c1ccc(-c2ccccc2-c2nnn[nH]2)cc1NC(=O)Nc1ccc(C)cc1)C1CCCCC1 [Example 462]	1.11 nM
CC(C)CN(CC(C)C)c1ccc(-c2ccccc2-c2nnn[nH]2)cc1NC(=O)Nc1ccc(N(C)C)cc1 [Example 463]	20 nM
CC(C)CN(CC(C)C)c1ccc(-c2ccccc2-c2nnn[nH]2)cc1NC(=O)NC1CCCC1 [Example 464]	790 nM
Cc1ccc(NC(=O)Nc2cc(-c3ccccc3-c3nnn[nH]3)ccc2N(CCOC(C)C)CC(C)C)cc1 [Example 465]	200 nM
Cc1ccc(NC(=O)Nc2cc(-c3cc(F)ccc3C(=O)O)ccc2N(CCOC(C)C)CC(C)C)cc1 [Example 466]	1740 nM
Cc1ccc(NC(=O)Nc2cc(-c3ccccc3-c3nnn[nH]3)ccc2N(CCCC(F)(F)F)C2CCCCC2)cc1 [Example 467]	10 nM
[2H]C([2H])(C(C)C)N(c1ccc(-c2cc(F)ccc2C(=O)O)cc1NC(=O)Nc1ccc(C)cc1)C([2H])([2H])C(C)C [Example 477]	7.65 nM
[2H]C([2H])(C(C)C)N(c1ccc(-c2ccccc2C(=O)O)cc1NC(=O)Nc1ccc(C)cc1)C([2H])([2H])C(C)C [Example 478]	10 nM
CC(C)CN(c1cc(F)c(-c2cc(F)ccc2C(=O)O)cc1NC(=O)Nc1ccc(OC(F)(F)F)cc1)C1CCCCC1 [Example 485]	5.75 nM
CC(C)CN(c1cc(F)c(-c2cc(F)ccc2C(=O)O)cc1NC(=O)Nc1cncnc1)C1CCCCC1 [Example 486]	30 nM
CC(C)CN(c1ccc(-c2cc(F)ccc2C(=O)O)cc1NC(=O)Nc1cnc2c(c1)ncn2C)C1CCCCC1 [Example 487]	1050 nM
CC(C)CN(c1ccc(-c2cc(F)ccc2C(=O)O)cc1NC(=O)Nc1ccc(C#N)nc1)C1CCCCC1 [Example 488]	3.46 nM
